Laboratory results as given in patent publication US20240398835A1, “METHODS FOR TREATING CONGENITAL DISORDERS OF GLYCOSYLATION” (priority 2023, published 2024).

Experiments:
Format in all cases: in vivo
[1] = test system: R318W PM 1 (R318W Human / R298W C. elegans point mutation); assay: C. elegans model growth assay (worm body area), R318W PM 1 line
Method: (§1) Five lines of GMPPA disorder models were generated in C. elegans using CRISPR/Cas9 gene editing: • One line GMPPA Human (Y47DA9.1 C. elegans) knockout (GMPPA KO) • Two lines T292P Human (S272P C. elegans) point mutation (T292P PM1, T292P PM2) • Two lines R318W Human (R298W C. elegans) point mutation (R318W PM1, R318W PM2)
(§2) These animals were tested for growth delays, temperature sensitivity, and mitotic stress sensitivity, with the dual goals of validating C. elegans as a model for studying GMPPA-CDG and identifying a robust phenotype that could be leveraged in future screening of novel pharmaceuticals for the treatment of the deleterious effects of this mutation.
(§3) To assess the effect of Compounds 1-6 on mitigating the growth deficit of C. elegans carrying a mutation in the GMPPA gene, the growth of the five mutant GMPPA C. elegans lines that were either untreated or treated with one of 6 different drugs (Compounds 1-6), at different concentrations, was measured. C. elegans were allowed to develop to the LI larval stage in the liquid solution. LI C. elegans were then placed onto plates seeded with inactivated OP50 containing the appropriate drug treatment in 0.1% DMSO, and were kept at 20° C. throughout the assay. About thirty 30 C. elegans synchronized at the LI stage of each genotype were placed onto 3 replicate plates containing the appropriate drug treatment and allowed to grow to adulthood at 20° C. Plates were imaged at the same time each day using the WormLab system (MBF Bioscience). Worm area was measured using the WormLab software. Animal sizes of each treatment were compared to sizes of untreated N2 control animals, as well as untreated animals of the same genotype on each day using ANOVA, followed by post-hoc t-tests corrected for multiple comparisons using the Benjamini-Hochberg correction procedure. Analyses were performed and plotted using custom R code.
(§4) To study the effects of the different drugs on growth, the size (body area) of animals treated with each concentration of each drug was compared to the size (body area) of untreated animals of the same genotype on the same day.

[2] = test system: GMPPA KO (GMPPA Human / Y47DA9.1 C. elegans knockout); assay: C. elegans model growth assay (worm body area), GMPPA KO line
Method: as §1, §2, §3, §4

[3] = test system: R318W PM 2 (R318W Human / R298W C. elegans point mutation); assay: C. elegans model growth assay (worm body area), R318W PM 2 line
Method: as §1, §2, §3, §4

[4] = test system: T292P PM 1 (T292P Human / S272P C. elegans point mutation); assay: C. elegans model growth assay (worm body area), T292P PM 1 line
Method: as §1, §2
as §3, with “code. […]” for “code.”

[5] = test system: T292P PM 2 (T292P Human / S272P C. elegans point mutation); assay: C. elegans model growth assay (worm body area), T292P PM 2 line; settings: 200 nM, Young Adult
Method: as §1, §2
To assess the effect of Compounds 1-6 on mitigating the growth deficit of C. elegans carrying a mutation in the GMPPA gene, the growth of the five mutant GMPPA C. elegans lines that were either untreated or treated with one of 6 different drugs (Compounds 1-6), at different concentrations, was measured. C. elegans were allowed to develop to the LI larval stage in the liquid solution. LI C. elegans were then placed onto plates seeded with inactivated OP50 containing the appropriate drug treatment in 0.1% DMSO, and were kept at 20° C. throughout the assay. […] Worm area was measured using the WormLab software. […]

[6] = 200 μM (third concentration group), Young Adult
[7] = 20 μM (as printed, second 20 μM group, last in table), Adult (day 5)
[8] = 20 μM (as printed, second 20 μM group, last in table), Young Adult
[9] = 200 μM (third concentration group), Adult (day 5)
[10] = 200 μM (third concentration group), Adult (day 4)

## CC(C)(C)NC(=O)[C@H]1CC[C@H]2[C@@H]3CC[C@H]4NC(=O)C=C[C@]4(C)[C@H]3CC[C@]12C [Compound 1, finasteride]
[1]; 20 nM, Adult (day 5)
  % Increase size (compared to untreated): 8.79%
[1]; 20 nM, L3
  % Increase size (compared to untreated): 12.77%
[1]; 20 nM, Young Adult
  % Increase size (compared to untreated): 11.59%
[1]; 200 nM, Adult (day 5)
  % Increase size (compared to untreated): 7.28%
[1]; 200 nM, L3
  % Increase size (compared to untreated): 13.73%
[1]; 200 nM, Young Adult
  % Increase size (compared to untreated): 16.92%
[1]; 2 μM, Adult (day 5)
  % Increase size (compared to untreated): 9.08%
[1]; 2 μM, Young Adult
  % Increase size (compared to untreated): 12.70%
[1]; 20 μM, L3
  % Increase size (compared to untreated): 10.73%
[2]; 2 μM, Adult (day 4)
  % Increase size (compared to untreated): 6.47%

## CC(O)(CS(=O)(=O)c1ccc(F)cc1)C(=O)Nc1ccc(C#N)c(C(F)(F)F)c1 (centres unmarked) [Compound 2, N-(4-cyano-3-(trifluoromethyl)phenyl)-3-((4-fluorophenyl)sulfonyl)-2-hydroxy-2-methylpropanamide]
[3]; 2 μM, Adult (day 5)
  % Increase size (compared to untreated): 9.82%
[3]; 2 μM, Young Adult
  % Increase size (compared to untreated): 20.08%
[4]; [6]
  % Increase size (compared to untreated): 16.12%
[1]; 2 μM, Adult (day 5)
  % Increase size (compared to untreated): 13.14%
[1]; 2 μM, Young Adult
  % Increase size (compared to untreated): 15.14%
[1]; [7]
  % Increase size (compared to untreated): 12.37%
[1]; [8]
  % Increase size (compared to untreated): 9.40%
[1]; 20 μM, Adult (day 5)
  % Increase size (compared to untreated): 6.98%
[1]; [9]
  % Increase size (compared to untreated): 13.42%
[1]; [6]
  % Increase size (compared to untreated): 15.18%
[2]; 20 μM, Adult (day 4)
  % Increase size (compared to untreated): 9.60%
[2]; [10]
  % Increase size (compared to untreated): 10.83%

## CCn1cc(C(=O)O)c(=O)c2cnc(N3CCNCC3)nc21 [Compound 3, 8-Ethyl-5,8-dihydro-5-oxo-2-(1-piperazinyl)pyrido (2,3-d)pyrimidine-6-carboxylic acid]
[3]; 2 μM, Adult (day 4)
  % Increase size (compared to untreated): 11.20%
[3]; 20 μM, Adult (day 5)
  % Increase size (compared to untreated): 5.57%
[3]; 20 μM, L3
  % Increase size (compared to untreated): 11.65%
[3]; 20 μM, Young Adult
  % Increase size (compared to untreated): 14.52%
[3]; 200 μM, Adult (day 4)
  % Increase size (compared to untreated): 8.02%
[3]; 200 μM, Adult (day 5)
  % Increase size (compared to untreated): 5.96%
[4]; 2 μM, Adult (day 5)
  % Increase size (compared to untreated): 14.96%
[1]; 2 μM, Adult (day 5)
  % Increase size (compared to untreated): 8.12%
[1]; 2 μM, Young Adult
  % Increase size (compared to untreated): 18.05%
[1]; [7]
  % Increase size (compared to untreated): 12.27%
[1]; [8]
  % Increase size (compared to untreated): 15.84%
[1]; 20 μM, Adult (day 5)
  % Increase size (compared to untreated): 12.83%
[1]; 20 μM, L3
  % Increase size (compared to untreated): 14.96%
[1]; 20 μM, Young Adult
  % Increase size (compared to untreated): 9.03%
[1]; [9]
  % Increase size (compared to untreated): 10.51%
[1]; [6]
  % Increase size (compared to untreated): 14.43%
[2]; 2 μM, Adult (day 4)
  % Increase size (compared to untreated): 12.37%
[2]; 2 μM, Young Adult
  % Increase size (compared to untreated): 12.64%
[2]; [10]
  % Increase size (compared to untreated): 7.92%

## Cc1nc2n(c(=O)c1CCN1CCC(c3noc4cc(F)ccc34)CC1)CCCC2O (centres unmarked) [Compound 4, 3-(2-(4-(6-fluorobenzo[d]isoxazol-3-yl)piperidin-1-yl)ethyl)-9-hydroxy-2-methyl-6,7,8,9-tetrahydro-4H-pyrido[1,2-a]pyrimidin-4-one]
[3]; 200 nM, Adult (day 4)
  % Increase size (compared to untreated): 8.35%
[3]; 2 μM, Adult (day 5)
  % Increase size (compared to untreated): 6.08%
[4]; 20 μM, Adult (day 5)
  % Increase size (compared to untreated): 6.70%
[1]; 20 nM, Adult (day 5)
  % Increase size (compared to untreated): 10.32%
[1]; 20 nM, Young Adult
  % Increase size (compared to untreated): 11.38%
[1]; 200 nM, Adult (day 5)
  % Increase size (compared to untreated): 11.03%
[1]; 2 μM, Adult (day 5)
  % Increase size (compared to untreated): 9.47%
[1]; 2 μM, Young Adult
  % Increase size (compared to untreated): 14.09%
[1]; 20 μM, Adult (day 5)
  % Increase size (compared to untreated): 10.72%
[2]; 20 nM, Adult (day 4)
  % Increase size (compared to untreated): 7.18%
[2]; 2 μM, Adult (day 4)
  % Increase size (compared to untreated): 6.86%

## C[C@H](NCc1ccc(OCc2cccc(F)c2)cc1)C(N)=O [Compound 5, (S)-2-((4-((3-fluorobenzyl)oxy)benzyl)amino) propanamide]
[3]; 2 μM, Adult (day 5)
  % Increase size (compared to untreated): 5.51%
[1]; 20 nM, Adult (day 5)
  % Increase size (compared to untreated): 11.09%
[1]; 200 nM, Adult (day 5)
  % Increase size (compared to untreated): 9.35%
[1]; 2 μM, Adult (day 5)
  % Increase size (compared to untreated): 9.47%
[1]; 2 μM, L3
  % Increase size (compared to untreated): 16.41%
[1]; 2 μM, Young Adult
  % Increase size (compared to untreated): 16.21%

## Cc1ccc2c([nH]c(=O)c3c(=O)cc(C(=O)OCCC(C)C)oc32)c1C [Compound 6, 3-methylbutyl 7,8-dimethyl-4,5-dioxo-6H-pyrano[3,2-c]quinoline-2-carboxylate]
[3]; 20 nM, Young Adult
  % Increase size (compared to untreated): 20.62%
[3]; 200 nM, Adult (day 4)
  % Increase size (compared to untreated): 7.96%
[3]; 200 nM, Young Adult
  % Increase size (compared to untreated): 25.23%
[3]; 2 μM, Adult (day 4)
  % Increase size (compared to untreated): 8.97%
[3]; 2 μM, Young Adult
  % Increase size (compared to untreated): 18.25%
[3]; 20 μM, Young Adult
  % Increase size (compared to untreated): 22.20%
[1]; 20 nM, Adult (day 5)
  % Increase size (compared to untreated): 11.15%
[1]; 20 nM, L3
  % Increase size (compared to untreated): 18.59%
[1]; 20 nM, Young Adult
  % Increase size (compared to untreated): 27.26%
[1]; 200 nM, Adult (day 5)
  % Increase size (compared to untreated): 12.15%
[1]; 200 nM, Young Adult
  % Increase size (compared to untreated): 18.38%
[1]; 2 μM, Adult (day 5)
  % Increase size (compared to untreated): 7.41%
[1]; 2 μM, Young Adult
  % Increase size (compared to untreated): 16.84%
[1]; 20 μM, Adult (day 5)
  % Increase size (compared to untreated): 10.80%
[1]; 20 μM, L3
  % Increase size (compared to untreated): 13.93%
[1]; 20 μM, Young Adult
  % Increase size (compared to untreated): 18.41%
[5]
  % Increase size (compared to untreated): 13.63%
[2]; 2 μM, Adult (day 4)
  % Increase size (compared to untreated): 6.58%
[2]; 20 μM, Young Adult
  % Increase size (compared to untreated): 13.22%
